In patent publication US20040137454A1, “Assay for drug-induced recoding” (priority 2004, published 2004):

Experiments:
endogenous antizyme = assay: Endogenous antizyme levels measured as ODC-inhibitory activity in HEK293 cell extracts; format: cell-based, human; details: HEK293 cells, 24 hours; for Antizyme: 1 mM aminoguanidine
Method: The endogenous antizyme levels were also measured for comparison. HEK293 cells were plated in 10 cm dishes with 10 ml of the growth media as described above at a concentration of 3×10^5 cells/ml and incubated for 24 hours. The medium was replaced with fresh medium supplemented with 1 mM aminoguanidine and various concentrations of either putrescine, spermidine, or spermine. The dishes were incubated further for 24 hours, placed on ice, washed with phosphate buffered saline twice, drained completely, and cells were disrupted by 3 freeze/thaw cycles. Then 0.5 ml of cell extract buffer (25 mM Tris-HCl, pH 7.2, 1 mM dithiothreitol, 1 mM EDTA, and 0.01% Tween 80) was added, and the cell suspension was centrifuged at 15,000 rpm for 30 minutes at 4° C. Antizyme activities were measured as ODC-inhibitory activities that could be reversed by excess antizyme inhibitor. Cell extracts (40 μl) were mixed with 2.0 units of mouse kidney ODC in duplicate. To one set, 0.1 μg of GST-antizyme inhibitor protein was added. ODC activity of each mixture was assayed by measuring the release of ^14CO2 from L-[1-^14C] ornithine (as described in I. P. Ivanov et al., Discovery of a Spermatogenesis Stage-specific Ornithine Decarboxylase Antizyme: Antizyme 3, 97 Proc. Nat'l Acad. Sci. USA 97, 4808-4813 (2000); I. P. Ivanov et al., Conservation of Polyamine Regulation by Translational Frameshifting from Yeast to Mammals, 19 EMBO J. 1907-1917 (2000); S. Matsufuji et al., Reading Two Bases Twice: Mammalian Antizyme Frameshifting in Yeast, 15 EMBO J. 1360-1370 (19%)), and expressed as specific activities. Protein concentrations of the extracts were determined with the BCA protein assay kit (Pierce) using bovine serum albumin as a standard. One unit of ODC and antizyme was defined as the activity releasing […] CO2 per hour and the activity inhibiting 1 unit of ODC, respectively.

[1] = system: antizyme 1 polyamine-regulated frameshifting sequence; assay: Dual luciferase reporter assay of antizyme 1 +1 frameshifting (p2Lucaz1) in transfected cells; format: cell-based, human; details: for Maximal frameshifting stimulation: HEK293, standard growth conditions without DFMO, 0.01-0.1 mM spermine, 0.1-2 mM spermidine, 0.5-2 mM putrescine; for Fold increase of antizyme 1 frameshifting upon polyamine addition to DFMO pre-treated cells: HEK293 pre-treated with DFMO, 0.1 mM spermine, 2 mM spermidine, 2 mM putrescine; for Effect on amount of frameshifting, p2Lucaz1: cultured mammalian cells, controls 2.5 mM DFMO
Description: Referring now to FIG. 2, the construction of illustrative embodiments of the dual reporter assay constructs is depicted. These illustrative embodiments use the renilla and firefly luciferases as first and second reporters, respectively. […] Pat. […] The shift site (TCCT), corresponding to UCCU in the corresponding mRNA, is present at nucleotides 55-58 of each of these sequences. […] Zero frame (“0 frame”) controls for each construct were identical except that the first T of the stop codon following the shift site was deleted. It will be appreciated that the DNA constructs disclosed herein are merely examples of dual reporter constructs comprising two reporter-encoding DNA segments separated by a cloning site containing a polyamine-regulated frameshifting sequence, and that all such constructs are included within the scope of the present invention. Cultured mammalian cells are transfected with the dual construct according to method well known in the art. Parallel cell lines are transfected with the +1 reading frame and 0 reading frame construct according to methods well known in the art. The cells are then incubated under varying conditions to test the effect of such conditions on the polyamine regulation. Cells are then lysed and the luciferase activity measured by light emission after injection of luminescence substrate, as is well known in the art. […] This provides a quantitative assay for measuring the polyamine-induced recoding. […] Similarly, mouse germ line (GC-2) cells were obtained from the American Tissue Type culture Collection (Manassas, Va.). […] All cells were incubated at 37° C. in an atmosphere of 5% CO2 All media and antibiotics were obtained from Invitrogen Life Technologies (Carlsbad, Calif.), and all sera were obtained from HyClone Inc. (Logan Utah). The cells were transfected with the dual luciferase constructs p2Lucaz1 and p2Lucaz2 using LIPOFECTIN reagent (Invitrogen Life Technologies). LIPOFECTIN reagent is a 1:1 (w/w) liposome formulation of the cationic lipid […],-trimethylammonium chloride (DOTMA), and dioleoyl phosphotidylethanolamine (DOPE) in membrane filtered water. Cells (0.3×10^5) were plated in 48-well, treated tissue culture plates and grown for 48 hours as described above. DFMO (2.5 mM) was added to half the plates of each cell line to inhibit polyamine synthesis. […] Cells were lysed using passive lysis buffer and luciferase activity was determined using the Dual Luciferase reporter assay (Promega, Madison, Wis.) as described in Grentzmann, supra. For all reactions, light emission was measure between 2 and 12 seconds after 100 μl of luminescence substrate was injected.

[2] = system: antizyme 2 polyamine-regulated frameshifting sequence; assay: Dual luciferase reporter assay of antizyme 2 +1 frameshifting (p2Lucaz2) in transfected cells; format: cell-based, human; details: for Effect on amount of frameshifting, p2Lucaz2: cultured mammalian cells, controls 2.5 mM DFMO
Description: Referring now to FIG. 2, the construction of illustrative embodiments of the dual reporter assay constructs is depicted. These illustrative embodiments use the renilla and firefly luciferases as first and second reporters, respectively. The sequences referred to herein as SEQ ID NO:1 and SEQ ID NO:2, which comprise antizyme 1 and 2 polyamine-regulated frameshifting sequences, respectively, were cloned into the SalI and BamHI sites of the p2Luc vector (U.S. Pat. No. 6,143,502) to produce plasmids p2Lucaz1 and p2Lucaz2. The shift site (TCCT), corresponding to UCCU in the corresponding mRNA, is present at nucleotides 55-58 of each of these sequences. Constructs were also prepared with deletions of the upstream stimulatory sequences of the antizyme 1 polyamine-regulated frameshifting sequence (SEQ ID NO:3) and the antizyme 2 polyamine-regulated frameshifting sequence (SEQ ID NO:4), resulting in plasmids p2Lucaz1usdel and p2Lucaz2usdel. Other constructs were prepared with deletions of the downstream pseudoknot stimulatory sequences of the antizyme 1 polyamine-regulated frameshifting sequence (SEQ ID NO:5) and the antizyme 2 polyamine-regulated frameshifting sequence (SEQ ID NO:6), resulting in plasmids p2Lucaz1pkdel and p2Lucaz2pkdel. Zero frame (“0 frame”) controls for each construct were identical except that the first T of the stop codon following the shift site was deleted. […]
Cultured mammalian cells are transfected with the dual construct according to method well known in the art. Parallel cell lines are transfected with the +1 reading frame and 0 reading frame construct according to methods well known in the art. […] Cells are then lysed and the luciferase activity measured by light emission after injection of luminescence substrate, as is well known in the art. […] This provides a quantitative assay for measuring the polyamine-induced recoding. […]

HEK293 cells = assay: Intracellular polyamine levels by HPLC analysis of whole cell lysates; format: cell-based, human
Method: Polyamine levels were also measured for comparison. Intracellular polyamine levels were determined by HPLC analysis of whole cell lysates. Cells (3×10^5) were grown in 6-well plates for 48 hours at 37° C. in an atmosphere of 5% CO2, either in the presence or absence of DFMO. Cells were then mock transfected as described above. […] Cells were allowed to grow for 12 hours, and 5×10^6 cells were harvested and washed three times with phosphate buffered saline.

[3] = system: antizyme 1 and 2 frameshifting sequences with downstream pseudoknot deleted; assay: Dual luciferase frameshifting assay, downstream pseudoknot deletion constructs p2Lucaz1pkdel and p2Lucaz2pkdel; format: cell-based, human; details: 1 mM spermidine added to DFMO (2.5 mM) treated HEK293 cells
Description: (§1) Referring now to FIG. 2, the construction of illustrative embodiments of the dual reporter assay constructs is depicted. These illustrative embodiments use the renilla and firefly luciferases as first and second reporters, respectively. The sequences referred to herein as SEQ ID NO:1 and SEQ ID NO:2, which comprise antizyme 1 and 2 polyamine-regulated frameshifting sequences, respectively, were cloned into the SalI and BamHI sites of the p2Luc vector (U.S. Pat. No. 6,143,502) to produce plasmids p2Lucaz1 and p2Lucaz2. The shift site (TCCT), corresponding to UCCU in the corresponding mRNA, is present at nucleotides 55-58 of each of these sequences. […]
(§2) To determine the effectiveness of the role of sequences flanking the frameshift site in inducing frameshifting levels, dual luciferase constructs were made in which antizyme sequences preceding and following the antizyme 1 and 2 frameshift sites were deleted. […] As described above, these constructs were then transiently transfected into HEK293 cells grown in standard growth nedia or media with 2.5 mM DFMO, and frameshift levels were measured following the addition of exogenously added spermidine (1 mM).

[4] = system: antizyme 1 and 2 frameshifting sequences with upstream stimulatory sequences deleted; assay: Dual luciferase frameshifting assay, upstream deletion constructs p2Lucaz1usdel and p2Lucaz2usdel; format: cell-based, human; details: 1 mM spermidine added to DFMO (2.5 mM) treated HEK293 cells
Description: as §1, §2

[5] = system: antizyme 3 frameshifting sequence; assay: Dual luciferase reporter assay with p2Luc containing the antizyme 3 frameshifting sequence; format: cell-based; details: cultured mammalian cells, controls 2.5 mM DFMO

NCCCCN [Putrescine, putrescine]
Fold Increase (antizyme vs control) (endogenous antizyme; 2 mM exogenous polyamine): 1.5 | Antizyme (endogenous antizyme; 2 mM exogenous polyamine): 3.0 ± 0.7 units/mg | Maximal frameshifting stimulation [1]: approximately 40% | Fold increase of antizyme 1 frameshifting upon polyamine addition to DFMO pre-treated cells [1]: ~10 fold

NCCCCNCCCN [Spermidine, spermidine]
Antizyme 2 frameshifting response compared with antizyme 1 ([2]; HEK293, with or without DFMO, FIG. 4): showed a very similar response to polyamine depletion and addition | Increase of intracellular spermidine levels over control cells (HEK293 cells; 1 mM spermidine added to DFMO treated HEK293 cells): 1.5 fold | Effect on intracellular putrescine and spermine levels (HEK293 cells; 1 mM spermidine added to DFMO treated or untreated HEK293 cells): restored putrescine and spermine levels to nearly that of control cells | Increase of intracellular spermidine levels over control cells (HEK293 cells; 1 mM spermidine added to untreated (no DFMO) HEK293 cells): 1.7 fold | Fold Increase (antizyme vs control) (endogenous antizyme; 1 mM exogenous polyamine): 1.1 | Antizyme (endogenous antizyme; 1 mM exogenous polyamine): 23 ± 0.2 units/mg | Fold Increase (antizyme vs control) (endogenous antizyme; 2 mM exogenous polyamine): 1.6 | Antizyme (endogenous antizyme; 2 mM exogenous polyamine): 3.4 units/mg | Stimulation of frameshifting, downstream (pseudoknot) deletion constructs [3]: approximately 2 fold | Stimulation of frameshifting, upstream deletion constructs [4]: 5-6 fold | Maximal frameshifting stimulation [1]: approximately 40% | Fold increase of antizyme 1 frameshifting upon polyamine addition to DFMO pre-treated cells [1]: ~10 fold

NCCCNCCCCNCCCN [Spermine, spermine]
Fold Increase (antizyme vs control) (endogenous antizyme; 0.4 mM exogenous polyamine): 1.2 | Antizyme (endogenous antizyme; 0.4 mM exogenous polyamine): 2.6 ± 0.5 units/mg | Fold Increase (antizyme vs control) (endogenous antizyme; 0.8 mM exogenous polyamine): 1.4 | Antizyme (endogenous antizyme; 0.8 mM exogenous polyamine): 3.0 ± 0.6 units/mg | Maximal frameshifting stimulation [1]: approximately 40% | Fold increase of antizyme 1 frameshifting upon polyamine addition to DFMO pre-treated cells [1]: ~10 fold

N=C(N)NCCCCN [agmatine]
Effect on amount of frameshifting, antizyme 3 frameshifting sequence ([5]; 0-16 mM agmatine, FIG. 7A): no increase in frameshifting was observed | Effect on amount of frameshifting, p2Lucaz2 ([2]; 0-16 mM agmatine, FIG. 7A): significantly increased the amount of frameshifting observed | Effect on amount of frameshifting, p2Lucaz1 ([1]; 0-16 mM agmatine, FIG. 7A): significantly increased the amount of frameshifting observed

NCCCCCN [cadaverine]
Effect on amount of frameshifting, antizyme 3 frameshifting sequence ([5]; 0-32 mM cadaverine, FIG. 7B): no increase in frameshifting was observed | Effect on amount of frameshifting, p2Lucaz2 ([2]; 0-32 mM cadaverine, FIG. 7B): effective for significantly increasing the amount of frameshifting observed | Effect on amount of frameshifting, p2Lucaz1 ([1]; 0-32 mM cadaverine, FIG. 7B): effective for significantly increasing the amount of frameshifting observed
